Data on one compound can be found in patent US11331273B2, “Film-coated tablet having high chemical stability of active ingredient” (Intercept Pharmaceuticals, Inc., priority 2016, dated 2022).

A short description of this data set: Storage stability of obeticholic acid (unmodified) in test tubes: dimer quantified per Test Example 2. Type of data set: physicochemical. On the procedure:
Obeticholic acid (unmodified) was weighed out in amounts of 5 mg into test tubes to serve as individual samples.
Test Lubes containing the obeticholic acid (unmodified) prepared in Example 1 were stored under the following conditions. The amounts of obeticholic acid dimer generated before (initial) and after storage were measured in accordance with Test Example 2. • Four weeks (4 W) at 50° C. and 85% RH (open) • Four weeks (4 W) at 60° C. (closed)
The amount of obeticholic acid dimer generated was measured in the same manner described in Test Example 1, with the exception that the sample solution was prepared as follows.
Acetonitrile/water (9/1) was added in an amount of exactly 10 mL to test tubes that had been retrieved from storage, and the contents were ultrasounded to extract the obeticholic acid. Following centrifugation (10 min at 3000 rpm), the supernatant was made into samples for HPLC assay (500 μg/mL obeticholic acid).

Where “and” joins values, the source holds several entries; their conditions need not be identical. Equal entries are not always repeated.

Take `CC[C@H]1[C@@H](O)[C@@H]2[C@H](CC[C@]3(C)[C@@H]([C@H](C)CCC(=O)O)CC[C@@H]23)[C@@]2(C)CC[C@@H](O)C[C@@H]12` [Comparative Example 3, 3α,7α-dihydroxy-6α-ethyl-5β-cholan-24-oic acid]: the “Amount of obeticholic acid dimer production (%)” value (“Amount … (%)” for short) (50° C., 85% RH, open, 4 W) amounted to 0.83%; the “Amount … (%)” value (60° C., closed, 4 W) was 0.81%; the “Amount … (%)” value (Initial) came out at 0.04%. The “Increase (%) in obeticholic acid dimerization from initial product” value (50° C., 85% RH, open, 4 W) is 0.79%; the “Increase (%) in obeticholic acid dimerization from initial product” value (60° C., closed, 4 W) was 0.77% and 0.78%.
